Experimental findings from patent publication US20240067662A1, “KRAS INHIBITORS” (Bristol-Myers Squibb Company, priority 2022, published 2024) are described below.

The structures appear in SMILES notation.

This assay addresses GMPPNP-loaded KRAS G12C (Homo sapiens, UniProt P01116, G12C). Kind of assay: KRAS G12C RAF Disruption Assay (HTRF). Type of assay: biochemical. The settings on record: recombinant GMPPNP-loaded KRAS G12C (5 nM), 20 min with compound; GST-RAF1 RBD (9 nM); HTRF signal; read-out: KRASG12C RAF Disruption Assay (IC50). The method, boiled down: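 The read-out is an HTRF 520/495 emission ratio, with IC50 taken from dose-response curves. Compound was first incubated for 20 min at room temperature with active-state KRAS G12C (GMPPNP, 5 nM) in Tris pH 7.5/NaCl/MgCl2/DTT/BSA. RAF1 RBD-GST (9 nM, 20 min) and SA-Tb (0.25 nM, 3 h) were added in turn.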
Background: In TR-FRET formats the signal depends on donor and acceptor labels being close together.

GMPPNP-loaded KRAS G12C, sequence (P01116 1-188 isoform P01116-2 G12C): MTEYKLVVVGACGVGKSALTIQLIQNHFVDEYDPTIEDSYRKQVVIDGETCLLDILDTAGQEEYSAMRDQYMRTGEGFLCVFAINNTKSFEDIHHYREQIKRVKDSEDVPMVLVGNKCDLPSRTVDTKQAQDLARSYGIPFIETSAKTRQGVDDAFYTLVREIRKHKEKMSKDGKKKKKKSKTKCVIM

As usually defined, the IC50 is the midpoint of a concentration-inhibition curve. Regarding `C#Cc1cccc2cccc(-c3ncc4c(N(C)C5CCN(C(=O)/C(F)=C/c6nccs6)C5C)nc(OC[C@@]56CCCN5C[C@H](F)C6)nc4c3F)c12` (single isomer, unassigned) [Example 73 cis isomer 1], the IC50 came out at 0.11 µM.

For the compound `C#Cc1cccc2cccc(-c3ncc4c(N5CCC6C5CCN6C(=O)/C(F)=C/c5ccccn5)nc(OC[C@@]56CCCN5C[C@H](F)C6)nc4c3F)c12` (single isomer, unassigned) [Compound 107], the IC50 worked out at 5.6 µM.

With `C#Cc1cccc2cccc(-c3ncc4c(N5CC6(CCN(C(=O)/C(F)=C/c7ccccn7)CC6)C5)nc(OC[C@@]56CCCN5C[C@H](F)C6)nc4c3F)c12` [Compound 91, (Z)-1-(2-(7-(8-ethynylnaphthalen-1-yl)-8-fluoro-2-(((2R, 7aS)-2-fluorotetrahydro-1H-pyrrolizin-7a(5H)-yl)methoxy)pyrido[4,3-d]pyrimidin-4-yl)-2,7-diazaspiro[3.5]nonan-7-yl)-2-fluoro-3-(pyridin-2-yl)prop-2-en-1-one], the IC50 was 5 µM.
